Data: patent publication US10294202B2, “Pyrrolidinones as herbicides” (FMC Corporation, priority 2013, dated 2019)

Experiments:
barnyardgrass [1] = assay: Test A pre-/postemergence herbicide test; format: in vivo, Echinochloa crus-galli; details: for Barnyardgrass plant response rating: visual rating on 0 to 100 scale (0 no effect, 100 complete control)
Method in brief: (§1)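 Visual injury ratings, 0 = no effect, 100 = complete control, taken ~10 days after treatment against untreated greenhouse controls. Preemergence: directed soil spray onto seeded loam/sand pots. Postemergence: spray onto plants at one- to two-leaf stage, 2–10 cm tall.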

giant foxtail = assay: Test A pre-/postemergence herbicide test; format: in vivo, Setaria faberii; details: for Foxtail, Giant plant response rating: visual rating on 0 to 100 scale (0 no effect, 100 complete control)
Method in brief: as §1

pigweed = assay: Test A pre-/postemergence herbicide test; format: in vivo, Amaranthus retroflexus; details: for Pigweed plant response rating: visual rating on 0 to 100 scale (0 no effect, 100 complete control)
Method in brief: as §1

galium = assay: Test C pre-/postemergence herbicide test; format: in vivo, Galium aparine; details: Preemergence
Method in brief: (§2)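 Pre- and postemergence greenhouse screen. Preemergence treatment went onto freshly planted seeds in loam–sand soil; postemergence treatment went onto plants 2 to 18 cm tall at the 1- to 4-leaf stage in sphagnum peat/vermiculite medium. Scoring at 13 to 15 days used a 0–100 control scale.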

crabgrass, large = assay: Test C pre-/postemergence herbicide test; format: in vivo, Digitaria sanguinalis; details: Preemergence
Method in brief: as §2

foxtail, giant = assay: Test C pre-/postemergence herbicide test; format: in vivo, Setaria faberii; details: Preemergence
Method in brief: as §2

lambsquarters = assay: Test C pre-/postemergence herbicide test; format: in vivo, Chenopodium album; details: Preemergence
Method in brief: as §2

morningglory = assay: Test C pre-/postemergence herbicide test; format: in vivo, Ipomoea coccinea; details: Preemergence
Method in brief: as §2

oat, wild = assay: Test C pre-/postemergence herbicide test; format: in vivo, Avena fatua; details: Preemergence
Source text: Seeds of plant species selected from blackgrass (Alopecurus myosuroides), ryegrass, Italian (Italian ryegrass, Lolium multiflorum), wheat (winter wheat, Triticum aestivum), galium (catchweed bedstraw, Galium aparine), corn (Zea mays), crabgrass, large (large crabgrass, Digitaria sanguinalis), foxtail, giant (giant foxtail, Setaria faberii), johnsongrass (Sorghum halepense), lambsquarters (Chenopodium album), morningglory (Ipomoea coccinea), nutsedge, yellow (yellow nutsedge, Cyperus esculentus), pigweed (Amaranthus retroflexus), ragweed (common ragweed, Ambrosia elatior), soybean (Glycine max), barnyardgrass (Echinochloa crus-galli), oilseed rape (Brassica napus), waterhemp (common waterhemp, Amaranthus rudis), kochia (Kochia scoparia), oat, wild (wild oat, Avena fatua), surinam grass (Brachiaria decumbens), foxtail, green (green foxtail, Setaria viridis), goosegrass (Eleusine indica), bromegrass, downy (downy bromegrass, Bromus tectorum), nightshade (eastern black nightshade, Solanum ptycanthum), cocklebur (common cocklebur, Xanthium strumarium), cupgrass, woolly (woolly cupgrass, Eriochloa villosa), bermudagrass (Cynodon dactylon), sunflower, (common oilseed sunflower, Helianthus annuus), Russian thistle (Salsola kali) and velvetleaf (Abutilon theophrasti) were planted into a blend of loam soil and sand and treated preemergence with test chemicals formulated in a non-phytotoxic solvent mixture which included a surfactant. At the same time, plants selected from these crop and weed species and also barley (winter barley, Hordeum vulgare), […]), chickweed (common chickweed, Stellaria media), deadnettle (henbit deadnettle, Lamium amplexicaule), and canarygrass (littleseed canarygrass, Phalaris minor) were planted in pots containing Redi-Earth® planting medium (Scotts Company, 14111 Scottslawn Road, Marysville, Ohio 43041) comprising spaghnum peat moss, vermiculite, wetting agent and starter nutrients and treated with postemergence applications of test chemicals formulated in the same manner. Plants ranged in height from 2 to 18 cm (1- to 4-leaf stage) for postemergence treatments. Treated plants and controls were maintained in a greenhouse for 13 to 15 days, after which time all species were compared to controls and visually evaluated. Plant response ratings, summarized in Table C, are based on a scale of 0 to 100 where 0 is no effect and 100 is complete control. A dash (-) response means no test result.

velvetleaf = assay: Test C pre-/postemergence herbicide test; format: in vivo, Abutilon theophrasti; details: Preemergence
Method in brief: as §2

barnyardgrass [2] = assay: Test C pre-/postemergence herbicide test; format: in vivo, Echinochloa crus-galli; details: Preemergence
Method in brief: as §2

waterhemp = assay: Test C pre-/postemergence herbicide test; format: in vivo, Amaranthus rudis; details: Preemergence
Method in brief: as §2

[3] = Postemergence, 125 g ai/ha, 0 to 100 scale, 0 no effect, 100 complete control
[4] = Postemergence, 500 g ai/ha, 0 to 100 scale (0 no effect, 100 complete control)
[5] = preemergence, 500 g ai/ha, 0 to 100 scale (0 no effect, 100 complete control)
[6] = preemergence, 500 g ai/ha, 0 to 100 scale
[7] = 31 g ai/ha, scale 0 to 100 (0 no effect, 100 complete control)
[8] = 125 g ai/ha, scale 0 to 100 (0 no effect, 100 complete control)
[9] = 250 g ai/ha, scale 0 to 100 (0 no effect, 100 complete control)
[10] = Postemergence, 125 g ai/ha, 0 to 100 scale, 0 is no effect, 100 is complete control
[11] = Preemergence, 125 g ai/ha, 0 to 100 scale where 0 is no effect and 100 is complete control
[12] = preemergence, 500 g ai/ha, 0 to 100 scale, 0 is no effect and 100 is complete control
[13] = 31 g ai/ha, scale 0 to 100, 0 is no effect and 100 is complete control
[14] = 62 g ai/ha, scale 0 to 100 (0 no effect, 100 complete control)

## O=C1NCC(c2ccc(Cl)c(F)c2)C1C(=O)Nc1ccccc1F (centres unmarked) [Compound 53]
Barnyardgrass [1]; [3]
  Plant response rating, Barnyardgrass: 30
Barnyardgrass [1]; [4]
  Plant response rating, Barnyardgrass: 80
Barnyardgrass [1]; Preemergence, 125 g ai/ha
  Barnyardgrass plant response rating: 80
Barnyardgrass [1]; [5]
  Plant response rating, Barnyardgrass: 90
Giant foxtail; [3]
  Plant response rating, Foxtail, Giant: 30
Giant foxtail; [4]
  Plant response rating, Foxtail, Giant: 80
Giant foxtail; Preemergence, 125 g ai/ha
  Foxtail, Giant plant response rating: 90
Giant foxtail; [6]
  Plant response rating, Foxtail, Giant: 90
pigweed; [3]
  Plant response rating, Pigweed: 0
pigweed; [4]
  Plant response rating, Pigweed: 0
pigweed; Preemergence, 125 g ai/ha
  Pigweed plant response rating: 0
pigweed; [6]
  Plant response rating, Pigweed: 0
galium; [7]
  Galium plant response rating: 0
galium; 62 g ai/ha, scale 0 to 100
  Plant response rating, Galium: 0
galium; [8]
  Plant response rating, Galium: 0
galium; [9]
  Plant response rating, Galium: 70
crabgrass, large; [7]
  Crabgrass, Large plant response rating: 80
crabgrass, large; 62 g ai/ha, scale 0 to 100
  Plant response rating, Crabgrass, Large: 85
crabgrass, large; [8]
  Plant response rating, Crabgrass, Large: 90
crabgrass, large; [9]
  Plant response rating, Crabgrass, Large: 90
foxtail, giant; [7]
  Foxtail, Giant plant response rating: 40
foxtail, giant; 62 g ai/ha, scale 0 to 100
  Plant response rating, Foxtail, Giant: 65
foxtail, giant; [8]
  Plant response rating, Foxtail, Giant: 65
foxtail, giant; [9]
  Plant response rating, Foxtail, Giant: 85
lambsquarters; 62 g ai/ha, scale 0 to 100
  Plant response rating, Lambsquarters: 0
lambsquarters; [8]
  Plant response rating, Lambsquarters: 40
morningglory; 62 g ai/ha, scale 0 to 100
  Plant response rating, Morningglory: 0
morningglory; [8]
  Plant response rating, Morningglory: 0
oat, wild; 62 g ai/ha, scale 0 to 100
  Plant response rating, Oat, Wild: 0
oat, wild; [8]
  Plant response rating, Oat, Wild: 0
velvetleaf; 62 g ai/ha, scale 0 to 100
  Plant response rating, Velvetleaf: 0
velvetleaf; [8]
  Plant response rating, Velvetleaf: 0

## O=C1NCC(c2ccc(F)cc2)C1C(=O)Nc1ccccc1F (racemic) [Compound 16]
Barnyardgrass [1]; [3]
  Plant response rating, Barnyardgrass: 70
Barnyardgrass [1]; [4]
  Plant response rating, Barnyardgrass: 90
Barnyardgrass [1]; Preemergence, 125 g ai/ha
  Barnyardgrass plant response rating: 80
Barnyardgrass [1]; [5]
  Plant response rating, Barnyardgrass: 90
Giant foxtail; [3]
  Plant response rating, Foxtail, Giant: 60
Giant foxtail; [4]
  Plant response rating, Foxtail, Giant: 90
Giant foxtail; Preemergence, 125 g ai/ha
  Foxtail, Giant plant response rating: 90
Giant foxtail; [6]
  Plant response rating, Foxtail, Giant: 90
pigweed; [3]
  Plant response rating, Pigweed: 0
pigweed; [4]
  Plant response rating, Pigweed: 0
pigweed; Preemergence, 125 g ai/ha
  Pigweed plant response rating: 0
pigweed; [6]
  Plant response rating, Pigweed: 0
galium; [7]
  Galium plant response rating: 0
galium; 62 g ai/ha, scale 0 to 100
  Plant response rating, Galium: 0
crabgrass, large; [7]
  Crabgrass, Large plant response rating: 95
crabgrass, large; 62 g ai/ha, scale 0 to 100
  Plant response rating, Crabgrass, Large: 95
crabgrass, large; [8]
  Plant response rating, Crabgrass, Large: 100
crabgrass, large; [9]
  Plant response rating, Crabgrass, Large: 100
foxtail, giant; [7]
  Foxtail, Giant plant response rating: 0
foxtail, giant; 62 g ai/ha, scale 0 to 100
  Plant response rating, Foxtail, Giant: 70
foxtail, giant; [8]
  Plant response rating, Foxtail, Giant: 90
foxtail, giant; [9]
  Plant response rating, Foxtail, Giant: 95
morningglory; 62 g ai/ha, scale 0 to 100
  Plant response rating, Morningglory: 0
morningglory; [8]
  Plant response rating, Morningglory: 0
oat, wild; 62 g ai/ha, scale 0 to 100
  Plant response rating, Oat, Wild: 5
oat, wild; [8]
  Plant response rating, Oat, Wild: 15
velvetleaf; 62 g ai/ha, scale 0 to 100
  Plant response rating, Velvetleaf: 0
velvetleaf; [8]
  Plant response rating, Velvetleaf: 0

## O=C1NCC(c2ccc(C(F)(F)F)c(F)c2)C1C(=O)Nc1cccc(F)c1F (racemic) [Compound 247]
Barnyardgrass [1]; [10]
  Plant response rating, Barnyardgrass: 60
Barnyardgrass [1]; [4]
  Plant response rating, Barnyardgrass: 80
Barnyardgrass [1]; [11]
  Plant response rating, Barnyardgrass: 90
Barnyardgrass [1]; [12]
  Plant response rating, Barnyardgrass: 90
Giant foxtail; [10]
  Plant response rating, Foxtail, Giant: 50
Giant foxtail; [4]
  Plant response rating, Foxtail, Giant: 80
Giant foxtail; [11]
  Plant response rating, Foxtail, Giant: 80
Giant foxtail; [12]
  Plant response rating, Foxtail, Giant: 90
pigweed; [10]
  Plant response rating, Pigweed: 0
pigweed; [4]
  Plant response rating, Pigweed: 0
pigweed; [11]
  Plant response rating, Pigweed: 0
pigweed; [12]
  Plant response rating, Pigweed: 0
galium; [13]
  Galium plant response rating: 90
galium; [14]
  Galium plant response rating: 90
galium; [8]
  Plant response rating, Galium: 90
galium; 250 g ai/ha
  Plant response rating (scale of 0 to 100), Galium: 90
crabgrass, large; [13]
  Crabgrass, Large plant response rating: 95
crabgrass, large; [14]
  Crabgrass, Large plant response rating: 95
crabgrass, large; [8]
  Plant response rating, Crabgrass, Large: 98
crabgrass, large; 250 g ai/ha
  Plant response rating (scale of 0 to 100), Crabgrass, Large: 100
foxtail, giant; [13]
  Foxtail, Giant plant response rating: 95
foxtail, giant; [14]
  Foxtail, Giant plant response rating: 95
foxtail, giant; [8]
  Plant response rating, Foxtail, Giant: 98
foxtail, giant; 250 g ai/ha
  Plant response rating (scale of 0 to 100), Foxtail, Giant: 100
lambsquarters; [13]
  Lambsquarters plant response rating: 0
lambsquarters; [14]
  Lambsquarters plant response rating: 90
lambsquarters; [8]
  Plant response rating, Lambsquarters: 70
lambsquarters; 250 g ai/ha
  Plant response rating (scale of 0 to 100), Lambsquarters: 80
morningglory; [13]
  Morningglory plant response rating: 0
morningglory; [14]
  Morningglory plant response rating: 0
morningglory; [8]
  Plant response rating, Morningglory: 5
morningglory; 250 g ai/ha
  Plant response rating (scale of 0 to 100), Morningglory: 20
Barnyardgrass [2]; [13]
  Barnyardgrass plant response rating: 15
Barnyardgrass [2]; [14]
  Barnyardgrass plant response rating: 85
Barnyardgrass [2]; [8]
  Plant response rating, Barnyardgrass: 90
Barnyardgrass [2]; 250 g ai/ha
  Plant response rating (scale of 0 to 100; 0 is no effect, 100 is complete control), Barnyardgrass: 90
waterhemp; [13]
  Waterhemp plant response rating: 70
waterhemp; [14]
  Waterhemp plant response rating: 100
waterhemp; [8]
  Plant response rating, Waterhemp: 100
waterhemp; 250 g ai/ha
  Plant response rating (scale of 0 to 100), Waterhemp: 85
velvetleaf; [13]
  Velvetleaf plant response rating: 0
velvetleaf; [14]
  Velvetleaf plant response rating: 20
velvetleaf; [8]
  Plant response rating, Velvetleaf: 30
velvetleaf; 250 g ai/ha
  Plant response rating (scale of 0 to 100), Velvetleaf: 25
